# Laboratory results: patent publication US11559500B2, “Compositions and formulations for treatment of malignancies” (Neugate Pharma, LLC, priority 2017, dated 2023)
# Tested on: malignant primary or metastatic tumors involving the CNS
# Test: Clinical and radiological tumor response (Macdonald criteria), immune modulating regimen in addition to standard chemoradiotherapy
# Type: in vivo, human
# Conditions: CNS melanoma subject, ipilimumab with radiotherapy, before the regimen
# Description: Subjects used in the larger study were diagnosed with different primary or metastatic tumors involving the central nervous system: glioblastoma, carcinoma, or lymphoma. The oral immunomodulation regimen was offered to subjects in addition to standard therapy.
# Samples were collected at scheduled clinic visits. […] Radiology studies were performed as part of standard evaluation.
substance,measurement,value
ipilimumab,Disease course on prior therapy,progressed
